Measurements as given in publication PMC5967867, “An NMDAR positive and negative allosteric modulator series share a binding site and are interconverted by methyl groups” (eLife, 2018).
Values joined by “and” are separate entries in the source; they are usually repeats but may differ in a detail not shown here. Identical values can stand only once.

Columns and labels:
NMDARs = assay: Whole-cell recordings of modulation at +40 mV and -60 mV (voltage dependence); format: cell-based, rat; details: 10 µM test compound
Protocol: Figure 4. The association and dissociation time course of EU1794-2, EU1794-4 and EU1794-27 differ at GluN1/GluN2A and GluN1/GluN2D. (A) Representative whole-cell current recordings of GluN1/GluN2D NMDARs exemplifying the modulation time course of EU1794-2, EU1794-4 and EU1794-27 (1, 3, 10 µM). […] Insets show the steady state modulation extent from the HEK cell experiments fit by the Hill equation (Hill slope fixed to 1). (B) Analysis of the time course for the onset of PAM and NAM action as a function of concentrations for EU1794-2 (left), EU1794-4 (left) and EU1794-27 (right) used to determine the association rate kON (black circles) and dissociation rate kOFF (grey squares), from which we can calculate Kd for each modulator. Data are from at least 3 cells for each concentration of modulator. For EU1794-27 the association and dissociation rate linear component was also found to be concentration dependent (mon = −0.98 pA/(ms*µM), moff = 0.62 pA/(ms*µM)). (C,D) Similar set of panels as A,B but examining EU1794-2, EU1794-4 and EU1794-27 modulation of GluN1/GluN2A. In example recordings, all modulator concentrations are 10 µM. Data are from at least 3 cells for each concentration of modulator. For EU1794-27 time-course was fitted with the sum of an exponential and linear function, and both the time constant and slope were concentration dependent (mon = −0.33 pA/(s*µM), moff = 0.16 pA/(s*µM)). Figure 4—figure supplement 1. The actions of EU1794 modulators are voltage-independent and are influenced by the desensitization level. (A–C) A representative current response of EU1794-2 (A, the ratio of the % modulation by EU1794-2 at +40 mV and −60 mV was 1.1 ± 0.27, n = 3), EU1794-4 (B, the ratio of modulation at +40 mV and −60 mV was 0.88 ± 0.06, n = 6) and EU1794-27 (C, the ratio of modulation at +40 mV and −60 mV was 0.99 ± 0.15, n = 3) modulation with the Vm held at +40 mV and −60 mV; all responses shown were using 10 µM of test compound. […]

GluN1/GluN2D NMDARs = GluN1/GluN2D NMDARs (Rattus norvegicus, UniProt P35439+Q62645); assay: Whole cell patch-clamp recordings, HEK293 cells expressing GluN1/GluN2D; format: cell-based; details: for kon / koff: HEK293; for kon: read-out: association rate kon; for koff: read-out: dissociation rate koff; for Kd: calculated from association and dissociation rates, HEK cells, read-out: kinetically-determined affinity constant Kd
GluN1/GluN2D NMDARs, sequence (Q62645 28-1323, other chains not shown): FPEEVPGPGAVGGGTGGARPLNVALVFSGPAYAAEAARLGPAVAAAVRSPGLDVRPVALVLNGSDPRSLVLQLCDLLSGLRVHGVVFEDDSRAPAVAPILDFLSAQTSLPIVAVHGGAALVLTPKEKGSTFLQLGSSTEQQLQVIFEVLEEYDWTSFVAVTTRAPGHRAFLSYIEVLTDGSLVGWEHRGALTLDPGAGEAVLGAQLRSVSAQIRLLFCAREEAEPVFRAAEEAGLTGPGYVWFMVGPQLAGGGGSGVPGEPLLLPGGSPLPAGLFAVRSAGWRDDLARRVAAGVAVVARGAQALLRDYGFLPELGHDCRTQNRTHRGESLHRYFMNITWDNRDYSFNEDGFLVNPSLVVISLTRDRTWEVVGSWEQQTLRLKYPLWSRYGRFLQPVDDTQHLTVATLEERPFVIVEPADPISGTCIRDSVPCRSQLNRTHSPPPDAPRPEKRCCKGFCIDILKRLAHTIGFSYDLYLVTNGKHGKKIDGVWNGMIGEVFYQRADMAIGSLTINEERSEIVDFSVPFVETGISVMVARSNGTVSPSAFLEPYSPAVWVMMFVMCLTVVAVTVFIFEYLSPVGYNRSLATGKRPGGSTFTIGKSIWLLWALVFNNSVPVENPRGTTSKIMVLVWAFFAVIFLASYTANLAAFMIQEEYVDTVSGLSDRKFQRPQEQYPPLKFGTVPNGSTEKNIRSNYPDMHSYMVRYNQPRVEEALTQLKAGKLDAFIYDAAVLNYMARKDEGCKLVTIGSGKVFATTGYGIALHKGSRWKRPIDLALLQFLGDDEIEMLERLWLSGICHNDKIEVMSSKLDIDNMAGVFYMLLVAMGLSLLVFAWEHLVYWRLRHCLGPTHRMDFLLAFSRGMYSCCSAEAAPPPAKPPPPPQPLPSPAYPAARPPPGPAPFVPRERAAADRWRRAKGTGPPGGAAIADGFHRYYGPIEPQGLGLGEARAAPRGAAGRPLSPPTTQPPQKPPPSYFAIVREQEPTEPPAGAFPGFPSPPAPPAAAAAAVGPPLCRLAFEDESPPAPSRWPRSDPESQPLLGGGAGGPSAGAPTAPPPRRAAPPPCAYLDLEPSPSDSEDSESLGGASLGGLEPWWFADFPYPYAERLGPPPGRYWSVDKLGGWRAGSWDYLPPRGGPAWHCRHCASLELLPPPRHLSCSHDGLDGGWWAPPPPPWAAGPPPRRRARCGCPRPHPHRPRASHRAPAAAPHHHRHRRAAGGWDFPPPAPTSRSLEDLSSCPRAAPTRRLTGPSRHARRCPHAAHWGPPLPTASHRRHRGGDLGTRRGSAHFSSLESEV
Protocol: We studied NMDARs expressed in HEK293 cells to investigate the time course of modulator action. […] These modulators were tested on GluN1/GluN2A and GluN1/GluN2D to see whether there were differences in modulation given the distinct properties of these NMDAR subtypes. […] The time-course of modulator binding of EU1794-2, EU1794-4 and EU1794-27 was also determined for GluN1/GluN2A (Figure 4C,D).
cDNAs for rat wild type NMDAR subunits GluN1-1a (GenBank U11418, U08261; hereafter GluN1 or GluN1a), GluN1-1b (U08263, hereafter GluN1b), GluN2A (D13211), GluN2B (U11419), GluN2C (M91563), and GluN2D (L31611, modified as described in [Monyer et al., 1994]) were provided by Drs. S. Heinemann (Salk Institute), S. Nakanishi (Kyoto University), and P. Seeburg (University of Heidelberg). Site-directed mutagenesis was conducted using the QuikChange kit (Agilent Technologies, Santa Clara, CA) following the recommended protocol. DNA sequencing was used to verify all mutations. The amino acid numbering system started with the initiating methionine as residue number one. For expression in Xenopus laevis oocytes, cDNA constructs were linearized by restriction enzymes, and subsequently used to synthesize in vitro cRNAs following the manufacturer’s protocol (mMessage mMachine, Ambion, ThermoFisher Scientific, Waltham, MA).
HEK293 cells (CRL-1573, ATCC, Manassas, VA) were maintained in a tissue culture room solely reserved for their culturing and transfected using a CaPO4 protocol to express the diheteromeric NMDARs as previously described ([Hansen et al., 2013]). Cell lines were obtained directly from the supplier, were expanded, frozen and kept in liquid nitrogen in a dewar. Mycoplasma testing was not performed. cDNA ratios for transfection were 1:1:1 (GluN2D) or 1:1:5 (GluN2A) for GluN1:GluN2:GFP.

[1] = concentration dependence of linear component of time course

In the case of `CCOC(=O)c1c(NC(=O)CC2SC(=N)NC2=O)sc2c1CCC(C)C2` (centres unmarked) [EU1794-2, ethyl 2-(2-(2-imino-4-oxothiazolidin-5-yl)acetamido)-6-methyl-4,5,6,7-tetrahydrobenzo[b]thiophene-3-carboxylate], the “ratio of the % modulation at +40 mV and −60 mV” value (shortened to “ratio of the % modulation”) (NMDARs) is reported as 1.1 ± 0.27, the kon (GluN1/GluN2D NMDARs) is reported as 430000 M⁻¹ s⁻¹ and the koff (GluN1/GluN2D NMDARs) is reported as 0.495 s⁻¹. The Kd (GluN1/GluN2D NMDARs) was 1.1 µM and 1.14 µM.

With `CCOC(=O)c1c(NC(=O)CC2SC(=N)NC2=O)sc2c1CCCC2` (centres unmarked) [EU1794-4, ethyl 2-(2-(2-imino-4-oxothiazolidin-5-yl)acetamido)-4,5,6,7-tetrahydrobenzo[b]thiophene-3-carboxylate] the “ratio of the % modulation” value (NMDARs) was 0.88 ± 0.06, the kon (GluN1/GluN2D NMDARs) was 1.12e+06 M⁻¹ s⁻¹ and the koff (GluN1/GluN2D NMDARs) was 4.66 s⁻¹. For the same molecule, the Kd (GluN1/GluN2D NMDARs) was 4.2 µM and 4.16 µM.

For `CC(C)(C)OC(=O)c1c(NC(=O)CC2SC(=N)NC2=O)sc2c1CCCC2` (centres unmarked) [EU1794-27, tert-butyl 2-(2-(2-imino-4-oxothiazolidin-5-yl)acetamido)-4,5,6,7-tetrahydrobenzo[b]thiophene-3-carboxylate], the “ratio of the % modulation” value (NMDARs) was 0.99 ± 0.15, the kon (GluN1/GluN2D NMDARs) was 187000 M⁻¹ s⁻¹ and the koff (GluN1/GluN2D NMDARs) was 0.802 s⁻¹. For the same molecule, the Kd (GluN1/GluN2D NMDARs) was 4.3 µM, the “association linear component slope mon” value (GluN1/GluN2D NMDARs; [1]) was −0.98 pA/(ms*µM) and the “dissociation linear component slope moff” value (GluN1/GluN2D NMDARs; [1]) was 0.62 pA/(ms*µM).
